Results reported in patent US8841274B2, “Protein arginine N-methyltransferase-5 method of cancer treatment” (priority 2009, dated 2014).

How the values were obtained:
[1] = test system: U2OS cells; assay: Apoptosis (sub-G1) by FACS in U2OS cells; assay type: cell-based; settings: U2OS cells, expression vectors 48 h; relative to wild-type E2F-1; n=2
Protocol: Whether arginine methylation influences E2F-1-dependent apoptosis was investigated by comparing the ability of wild-type E2F-1 to the KK and KKK mutants to induce cells with a sub-G1 DNA content (Stevens et al 2003). […] U2OS cells were transfected with expression vectors encoding wild-type E2F-1, KK and KKK as indicated for 48 h and analysed by FACS as described. The graph represents the relative change in sub-G1 populations compared to the empty vector control treatment; n=2.
The graph (i) represents the relative number of sub-G I cells (compared to the control treatment) in the indicated conditions; and (ii) the level of PRMT5 and E2F-1; n=3.
PRMT5 (P) or control (C) non-targeting siRNA (25 nM) was transfected into HCT116 p53+/+ (i), HCT116 p53−/− (ii) or U2OS (iii) cells and the cells were harvested 72 h post-transfection and analysed by FACS. The graph represents the actual number of sub-G1 cells in the indicated conditions, and the immunoblot the level of PRMT5 and actin control; n=3.
PRMT5 (P), E2F-1 (E) or control (C) non-targeting siRNA was transfected into U2OS cells and harvested 72 h post-transfection and analysed by FACS as described.
Cells were transfected with the indicated expression vectors together with pBB14-GFP (for 48 h) to monitor transfection efficiency or siRNA (for 48 h or 72 h) with or without treatment of the DNA damage agent for the last 16 h. Then, cells were fixed and stained with propidium iodide and analyzed by Flow Cytometry.

[2] = test system: p73-luciferase or cyclinE-luciferase; assay: Reporter assay with E2F-responsive promoters; assay type: cell-based; settings: U2OS cells, 48 h, equivalent protein level; compared to wild-type E2F-1; n=3
Protocol: To further explore the role of arginine methylation in the transcription properties of E2F-1, wild-type E2F-1 was compared with the KK and KKK mutants in a reporter-based transfection assay, using E2F-responsive promoters derived from E2F target genes. The assay was performed under conditions in which each mutant protein was expressed at an equivalent level to wild-type E2F-1 (FIG. 4aii and bii), thus ruling out any difference in activity that could be attributed to protein levels. […] FIGS. 4a and b show the transcription properties of wild-type E2F-1, KK and KKK mutants. U2OS cells were transfected with expression vectors encoding WT or mutant E2F-1 protein, together with p73-luciferase (A) or cyclinE-luciferase (B) for 48 h as indicated, and pCMV-βgal to monitor transfection efficiency. Relative luciferase activity (luciferase/βgal) is shown together with expression level of ectopic proteins; n=3. […] PRMT5 (P) or control (C) non-targeting siRNA was transfected into U2OS cells together with p73-luciferase (i) or cyclinE-luciferase (ii) for 48 h, together with pCMV-βgal to monitor transfection efficiency. Relative luciferase activity is shown together with expression level of the ectopic proteins.
Cells were transfected with expression vectors (1 μg) encoding WT or the mutant E2F-1 proteins as indicated with E2F responsive luciferase reporters, namely p73-luciferase or cyclinE-luciferase, together with pCMV-βgal to monitor transfection efficiency. Cells were harvested, lysed 48 h post-transfection and luciferase activity measured as previously described (Janson et al 2008).

transcriptional activity (relative luciferase activity) [2]: increased transcriptional activity
Substance: KKK: methylation-defective E2F-1 protein containing the mutations R109K, R111K and R113K
apoptosis (sub-G1 population) [1]: increased levels of apoptosis
